The subject of experiment [1] is influenza A/WSN/33 (H1N1). As to the kind of experiment: microbe, parasite or virus in culture. The experiment is classed as cell-based. The note with it: MDCK, read-out: EC50 for viral plaque formation.
Experiment [2] deals with Bac-NA^WT (Influenza A virus, UniProt Q6DPL2). As to the kind of experiment: biochemical.
In experiment [3] the target is N2 NA (Influenza A virus, UniProt P0DOF9). As to the kind of experiment: biochemical.
The subject of experiment [4] is A/WSN/33. The class given is cell-based, influenza A virus.
Experiment [5] relates to influenza A/Udorn/72 (H3N2). As to the kind of experiment: microbe, parasite or virus in culture. The experiment is classed as cell-based. The settings on record: H3N2, MDCK, read-out: EC50 for viral plaque formation.
Experiment [6] deals with A/WSN/33 (H1N1). The class given is cell-based, influenza A virus.
Experiment [7] relates to NA. The note with it: cited from earlier work.

Chain of N2 NA (P0DOF9 whole entry, looked up): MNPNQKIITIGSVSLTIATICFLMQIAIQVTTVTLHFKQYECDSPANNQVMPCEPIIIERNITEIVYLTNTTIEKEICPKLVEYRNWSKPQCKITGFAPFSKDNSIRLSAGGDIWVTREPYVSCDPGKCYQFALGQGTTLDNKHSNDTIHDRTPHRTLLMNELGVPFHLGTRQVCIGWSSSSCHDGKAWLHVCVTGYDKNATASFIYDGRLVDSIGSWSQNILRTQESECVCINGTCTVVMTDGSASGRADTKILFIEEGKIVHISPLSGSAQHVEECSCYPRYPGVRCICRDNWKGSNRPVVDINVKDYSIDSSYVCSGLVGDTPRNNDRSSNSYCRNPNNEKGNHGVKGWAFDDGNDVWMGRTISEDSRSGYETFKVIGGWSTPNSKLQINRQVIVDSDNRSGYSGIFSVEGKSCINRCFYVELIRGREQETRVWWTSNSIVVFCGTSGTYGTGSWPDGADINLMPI
Chain of Bac-NA^WT (Q6DPL2 63-449 limits assumed): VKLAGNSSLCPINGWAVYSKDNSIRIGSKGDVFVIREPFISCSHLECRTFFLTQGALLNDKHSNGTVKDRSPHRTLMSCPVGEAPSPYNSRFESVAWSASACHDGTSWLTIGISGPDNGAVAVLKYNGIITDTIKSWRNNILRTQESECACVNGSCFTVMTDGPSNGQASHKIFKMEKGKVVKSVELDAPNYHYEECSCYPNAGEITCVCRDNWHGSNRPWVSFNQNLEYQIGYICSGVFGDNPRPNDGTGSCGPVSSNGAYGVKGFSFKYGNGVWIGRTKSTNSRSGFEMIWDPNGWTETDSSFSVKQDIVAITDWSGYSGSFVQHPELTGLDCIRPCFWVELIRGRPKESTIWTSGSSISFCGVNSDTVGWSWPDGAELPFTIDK

With `Nc1c(S(=O)(=O)O)cc(Nc2cccc(S(=O)(=O)CCOS(=O)(=O)O)c2)c2c1C(=O)c1ccccc1C2=O` [RB19, Remazol Brilliant Blue R], the values for the EC50 in experiment [1] and in experiment [5] were 2.7 µM and 2.8 µM, respectively. In addition, the half-maximal inhibitory concentration (IC50) in experiment [2] was determined as 3.4 µM; in experiment [3], 15.3 µM. The Influenza-induced cytopathic effect result in experiment [4] is recorded as “inhibits the influenza-induced cytopathic effect”. Besides, in experiment [6], the “Virus yields (fluorogenic signal of NA activity)” value is “dramatically reduced virus yields”.
Turning to DANA, the IC50 in experiment [7] is 10 µM.
